Measurements taken from PMC12298827, “Subchronic Toxicities of Four Per- and Polyfluoroalkyl Substances (PFASs) by Oral Exposure in Sprague–Dawley Rats” (Toxics, 2025).

Tested on: male and female Sprague–Dawley rats
Assay: 90-day subchronic oral gavage toxicity study
Assay type: in vivo, rat
Set-up: key to NOEL, absolute liver weight increase / LOEL, absolute liver weight increase / NOEL, relative kidney weight increase / LOEL, relative kidney weight increase / NOEL, absolute kidney weight increase / LOEL, absolute kidney weight increase / NOEL, relative liver weight increase / LOEL, relative liver weight increase: NR: no response, no statistically significant dose-dependent changes
Description: Subchronic (90-day) studies were performed in accordance with current U.S. EPA’s Toxic Substances Control Act Good Laboratory Practice (GLP) Standards, with the following two general exceptions to the GLP guidelines: Analysis of the dose formulations was conducted according to RTI-approved Standard Operating Procedures, and corn oil (the vehicle) was not characterized (certificate of analysis from the vendor is available in the appendices to the final reports). Male and female Sprague–Dawley rats (five dose levels plus a control, n = 10/sex/dose group, corn oil vehicle dose volume of 3 mL/kg; oral gavage) were used in these studies, and the rats were euthanized on SD 91. The dose levels for PFHI were 0, 12.5, 25, 50, 100, and 200 mg/kg-day. The dose levels for MHFPK were 0, 18.8, 37.5, 75, 150, and 300 mg/kg-day. The dose levels for PFNAC were 0, 0.1, 0.3, 1.0, 3.0, and 10 mg/kg-day for male rats and 0, 0.3, 1.0, 3.0, 10, and 30 mg/kg-day for female rats. For CTFPA, the dose levels were 0, 1.9, 3.8. 7.5, 15, and 30 mg/kg-day for male rats and 0, 6.3, 12.5, 25, 50, and 100 mg/kg-day for female rats. For each PFAS, three batches of dosing solution were prepared. The time between the batch preparation of the dosing solutions ranged between 29 and 39 days. Blood samples were collected from all the rats at termination for serum chemistry, hematology, coagulation, and the analysis of the parent PFAS chemical in the plasma. In vivo data collection and further detail on the endpoints examined postmortem are described below.
The rats were observed twice daily for morbidity and mortality throughout the study period. At least once prior to randomization to test groups and weekly thereafter, the rats were physically examined, and bodyweights were obtained. Feed consumption was quantified weekly starting on SD 1.
Neurotoxicity was evaluated using the functional observational battery (FOB) and measuring locomotor activity (LMA) 2–4 h post dosing on SDs 78–80 and 80–84, respectively. For both the 14- and 90-day studies, an ophthalmologic examination was conducted prior to randomization and near the end of the study, using indirect ophthalmoscopy and slit–lamp biomicroscopy (as needed) after the administration of a mydriatic solution.
Hematology, biochemistry, and coagulation endpoints were measured at the termination of the study. A Siemens Advia 2120i hematology analyzer (Siemens Healthineers, Erlangen, Germany) was used to measure (or calculate) the parameters related to the complete blood count, leukocyte differential count, and reticulocyte count. The hematology parameters are listed and described in Table 2. The prothrombin time […] and activated partial thromboplastin time (APTT) were measured using an Instrumentation Laboratory (Bedford, MA, USA) ACL Elite Pro coagulation analyzer (laser–nephelometric centrifugal method).
At necropsy, the rats were visually examined for external abnormalities and organ weights (absolute and relative to the BW and brain weight), which were recorded (paired organs weighed together). The tissues were preserved in 10% neutral buffered formalin (NBF), except for the ocular tissues, testes, and epididymides, which were preserved in modified Davidson’s fixative and later transferred to 10% NBF. Bone marrow smears were prepared from the femurs, and the slides were air-dried, fixed in methanol, stained, and stored at room temperature for possible future evaluation. The preserved tissues were embedded in paraffin, sectioned, stained with hematoxylin and eosin, and examined by a board-certified veterinary pathologist.
Statistical analysis was performed using Provantis™ Version 10 or greater (Instem LSS, Limited; Stone, Staffordshire, UK). Differences among the treatment groups compared to the control were evaluated using one-way analysis of variance (ANOVA) if the underlying assumptions of a normal distribution (Shapiro–Wilk test) and the homogeneity of the variance (Levene’s test) were satisfied. […]

`FC(F)(F)C(F)(F)C(F)(F)C(F)(F)CCI` [PFHI, 1H,1H,2H,2H-Perfluorohexyl iodide] was tested, and the “Bodyweight (BW) and bodyweight gain” value (90-day, both sexes, all doses) was “None in females; dose-dependent reduced BW changes in males in all the dose groups, but BW gain on SDs 1-90 was not significantly affected”, the Clinical observations (90-day, both sexes, all doses) was “None” and the Coagulation endpoints (90-day, both sexes, all doses) was “Dose-dependent minimal prolongations in PT (in males at ≥12.5 mg/kg-day and in females at ≥25 mg/kg-day”. The Feed consumption (90-day, both sexes, all doses) was “No changes in males; increased feed consumption in females at 25, 50, and 100 mg/kg-day but not at 200 mg/kg-day”, the Functional observational battery (90-day, both sexes, all doses) was “No changes” and the Gross lesions (90-day, both sexes, all doses) was “None considered as PFHI related”. The Hematology (90-day, both sexes, all doses) was “Minimal decreases in reticulocytes in males at ≥50 mg/kg-day; minimal increases in MPV in females and sporadically in males at 200 mg/kg-day and in both sexes at 50 and 100 mg/kg-day”, the Histopathology (90-day, both sexes, all doses) was “The kidney and liver ^5 of males at ≥100 mg/kg-day and the liver of females at 200 mg/kg-day” and the Locomotor activity (90-day, both sexes, all doses) was “No effects”. For the same compound, the Morbidity and mortality (90-day, both sexes, all doses) was “None”, the Ophthalmology (90-day, both sexes, all doses) was “No ocular lesions” and the Organ weight changes (90-day, both sexes, all doses) was “Mean absolute and/or relative dose-dependent organ weight increases in the liver of females at ≥100 mg/kg-day and males at ≥25 mg/kg-day and kidney weight increases only in males at ≥100 mg/kg-day ^5”. For the same compound, the “BMD10, absolute liver weight increase” value (female) was 57.8 mg/kg-day, the “BMDL, absolute liver weight increase” value (female) was 8.1 mg/kg-day and the “LOEL, absolute kidney weight increase” value (female) was “NR”. The “LOEL, absolute liver weight increase” value (female) was 200 mg/kg-day, the “LOEL, relative kidney weight increase” value (female) was “NR” and the “LOEL, relative liver weight increase” value (female) was 100 mg/kg-day. The “NOEL, absolute kidney weight increase” value (female) was “NR”, the “NOEL, absolute liver weight increase” value (female) was 100 mg/kg-day and the “NOEL, relative kidney weight increase” value (female) was “NR”. The “NOEL, relative liver weight increase” value (female) was 50 mg/kg-day, the “% BW Gain” value (female, 12.5 mg/kg-day) was 61.51% and the “% Diff, % BW Gain” value (female, 12.5 mg/kg-day) was 1.61%. The “% Diff, Total BW change” value (female, 12.5 mg/kg-day) was 1.06%, the “% Diff, Total Food Consumed” value (female, 12.5 mg/kg-day) was 0.12% and the A/G (female, 12.5 mg/kg-day) was 1.09±0.05 ratio. The ALB (female, 12.5 mg/kg-day) was 4.28 ± 0.37 g/dL, the ALPi (female, 12.5 mg/kg-day) was 42.8±13.0 U/L and the APTT (female, 12.5 mg/kg-day) was 18.80 s. The BUN (female, 12.5 mg/kg-day) was 16.8 ± 2.7 mg/dL, the CHOL (female, 12.5 mg/kg-day) was 110.5 ± 32.7 mg/dL and the GLOB (female, 12.5 mg/kg-day) was 3.94 ± 0.25 g/dL. It also gave a GLUC (female, 12.5 mg/kg-day) of 138.0 ± 29.9 mg/dL, an HCT (female, 12.5 mg/kg-day) of 46.90±1.85% and an HGB (female, 12.5 mg/kg-day) of 14.91 ± 0.54 g/dL. The “Kidney Weight” value (female, 12.5 mg/kg-day) was 1.83 g, the “Kidney/Body Weight” value (female, 12.5 mg/kg-day) was 0.58% and the “Kidney/Brain Weight” value (female, 12.5 mg/kg-day) was 89.5%. For the same compound, the “Liver Weight” value (female, 12.5 mg/kg-day) was 8.53 g, the “Liver/Body Weight” value (female, 12.5 mg/kg-day) was 2.68% and the “Liver/Brain Weight” value (female, 12.5 mg/kg-day) was 416%. The MPV (female, 12.5 mg/kg-day) was 7.10 ± 0.30 fL, the PT (female, 12.5 mg/kg-day) was 13.34 s and the “Total BW change” value (female, 12.5 mg/kg-day) was 124.60 g. For the same compound, the “Total Food Consumed” value (female, 12.5 mg/kg-day) was 1474 g, the “% BW Gain” value (female, 25 mg/kg-day) was 60.67% and the “% Diff, % BW Gain” value (female, 25 mg/kg-day) was 0.22%. The “% Diff, Total BW change” value (female, 25 mg/kg-day) was 1.70%, the “% Diff, Total Food Consumed” value (female, 25 mg/kg-day) was 7.27% and the A/G (female, 25 mg/kg-day) was 1.07±0.11 ratio. For the same compound, the ALB (female, 25 mg/kg-day) was 4.02 ± 0.39 g/dL, the ALPi (female, 25 mg/kg-day) was 54.9±21.9 U/L and the APTT (female, 25 mg/kg-day) was 18.59 s. For the same compound, the BUN (female, 25 mg/kg-day) was 16.2 ± 2.1 mg/dL, the CHOL (female, 25 mg/kg-day) was 114.9 ± 14.1 mg/dL and the GLOB (female, 25 mg/kg-day) was 3.78 ± 0.16 g/dL. It also gave a GLUC (female, 25 mg/kg-day) of 153.4 ± 30.6 mg/dL, an HCT (female, 25 mg/kg-day) of 48.01±1.96% and an HGB (female, 25 mg/kg-day) of 15.38 ± 0.54 g/dL. The “Kidney Weight” value (female, 25 mg/kg-day) was 1.83 g, the “Kidney/Body Weight” value (female, 25 mg/kg-day) was 0.57% and the “Kidney/Brain Weight” value (female, 25 mg/kg-day) was 88.2%. For the same compound, the “Liver Weight” value (female, 25 mg/kg-day) was 8.66 g, the “Liver/Body Weight” value (female, 25 mg/kg-day) was 2.71% and the “Liver/Brain Weight” value (female, 25 mg/kg-day) was 417%. The MPV (female, 25 mg/kg-day) was 7.32 ± 0.30 fL and the PT (female, 25 mg/kg-day) was 13.51 s.
